Experimental data: patent US11813248B2, “NK-1 antagonist compositions and methods for use in treating depression” (priority 2017, dated 2023)

Assays:
[1] = test system: patients with a DSM-III-R diagnosis of major depression; conditions: pramipexole 5.0 mg group, cited from earlier work
[2] = test system: PD patients; conditions: 0.125 to 1.0 mg three times per day; 12 weeks; 296 PD patients; p=0.01 vs placebo; cited from earlier work
[3] = test system: subjects; conditions: in vivo
Experimental: The study was a single center, single-blind study.
Once a subject had reached his/her first intolerable dose (FID-1), upward dose escalation was discontinued.
All other provisions of the protocol remained unchanged. Assessments were the same as those planned for the dose escalation day.
On each study day, subjects were followed up for up to 8 hours following drug administration for AEs, vital signs, ECGs. In addition, a laboratory panel was taken at screening and at the end of the study.

[4] = test system: animal behavior simulating symptoms of depression; conditions: high doses of pramipexole; cited from earlier work

Which “patients who completed the study” value ([1]; 8 weeks of treatment) does the source give for `CCCN[C@H]1CCc2nc(N)sc2C1` [Pramipexole, (S)-6-propylamino-4,5,6,7-tetrahydro-1,3-benzothiazole-2-amine] here?
The value was 42.4%.

What about the “improvement at week 8” value ([1]; change from baseline, no p value because of high drop-out rate) of the same molecule?
The value was −15.00.

And the patients reported nausea [1]?
The patients reported nausea was 76%.

And the patients reported vomiting [1]?
The patients reported vomiting was 39%.

What about the “patients discontinued treatment prematurely” value ([1]; mainly because of adverse events) of the same molecule?
The value was 57.6%.

What about the “BDI scores decreased by an adjusted” value [2] of the same molecule?
Its value is 5.9 (SE 0.5).

And the dose limiting toxicity [3]?
The dose limiting toxicity was “gastro-intestinal adverse events”.

What about the “activity in tests of animal behavior simulating symptoms of depression” value [4] of the same molecule?
The value was “active”.
